# Key:
# [1] = solubility to propylene glycol monomethyl ether acetate (PM) and cyclohexanone (AN); conditions: for Solubility to Solvent AN: cyclohexanone; for Solubility to Solvent PM: propylene glycol monomethyl ether acetate
# [2] = wavelength (λmax) at absorption spectrum peak and gram absorption coefficient at λmax; assay type: physicochemical; conditions: for λmax: wavelength at absorption spectrum peak
Compound,Solubility to Solvent AN [1],Solubility to Solvent PM [1],Gram Absorption Coefficient at λmax [2],λmax [2]
"COc1ccccc1/C=C/C(=O)N1CCCCC1 [Comparative Compound 2, reference compound]",<1 mass %,<1 mass %,76,275 nm
"CCO[Si](C)(CCCN)OCC [Comparative Compound 6, reference compound]",>50 mass %,>50 mass %,143,212 nm
CCN(CC)C(=O)/C=C/c1ccc(OC)cc1 [Compound 1],>50 mass %,>50 mass %,90,309 nm
COc1ccc(/C=C/C(=O)Nc2ccccc2)cc1 [Compound 2],>50 mass %,>50 mass %,117,317 nm
COc1ccc(/C=C/C(=O)n2ccnc2)cc1 [Compound 3],>50 mass %,>50 mass %,81,293 nm
COc1ccc(/C=C/C(=O)N2CCOCC2)cc1 [Compound 4],,,79,310 nm
COc1ccc(/C=C/C(=O)n2ccnc2)c([N+](=O)[O-])c1 [Compound 5],,,121,332 nm
COc1ccc(/C=C/C(=O)n2ccnc2)cc1[N+](=O)[O-] [Compound 6],,,86,344 nm
COc1ccc(/C=C(\C)C(=O)n2ccnc2)c([N+](=O)[O-])c1 [Compound 7],>50 mass %,>50 mass %,137,339 nm
COc1ccc(/C=C(\C)C(=O)n2ccnc2)cc1[N+](=O)[O-] [Compound 8],,,98,351 nm
CCN(CC)C(=O)/C=C/c1ccc(OC)cc1[N+](=O)[O-] [Compound 9],>50 mass %,>50 mass %,102,342 nm
CCN(CC)C(=O)/C=C/c1ccc(OC)c([N+](=O)[O-])c1 [Compound 10],>50 mass %,>50 mass %,119,354 nm
CCN(CC)C(=O)/C(C)=C/c1ccc(OC)cc1[N+](=O)[O-] [Compound 11],>50 mass %,>50 mass %,107,349 nm
CCN(CC)C(=O)/C(C)=C/c1ccc(OC)c([N+](=O)[O-])c1 [Compound 12],>50 mass %,>50 mass %,127,361 nm
COc1ccc(/C=C/C(=O)N2CCCCC2)c([N+](=O)[O-])c1 [Compound 13],>50 mass %,>50 mass %,87,313 nm
COc1ccc(/C=C/C(=O)N2CCCCC2)cc1[N+](=O)[O-] [Compound 14],>50 mass %,>50 mass %,94,322 nm
COc1ccc(/C=C(\C)C(=O)N2CCCCC2)c([N+](=O)[O-])c1 [Compound 15],>50 mass %,>50 mass %,92,313 nm
COc1ccc(/C=C(\C)C(=O)N2CCCCC2)cc1[N+](=O)[O-] [Compound 16],>50 mass %,>50 mass %,105,323 nm
COc1ccc(C=CC(=O)N2CCCCC2)cc1 [Compound 17],>50 mass %,>50 mass %,74,281 nm
COc1ccc(C=C(C)C(=O)n2ccnc2)cc1 [Compound 18],,,84,301 nm
CCN(CC)C(=O)C(C)=Cc1ccc(OC)cc1 [Compound 19],>50 mass %,>50 mass %,86,318 nm
"CCN(CC)C(=O)C=Cc1ccc(OC)cc1O [compound 7, reference compound]",>50 mass %,>50 mass %,72,304 nm
"COc1ccc(C=CC(=O)n2ccnc2)c(O)c1 [compound 9, reference compound]",>50 mass %,>50 mass %,65,290 nm
